Measurements published in patent US20200323950A1, “ANTIBACTERIAL PEPTIDES AND COMBINATIONS FOR CO-THERAPY” (priority 2017, published 2020).
Values after ≈ are worked out from the molar mass of the structure shown. *1 amine or outer side, *2 acyl side, *3 side chain or, on linkers, in order; H or OH if unused. Bridges are numbered along the chain shown (N, C = ends). Roman numbers before positions name the chains, in order. [ ]: non-standard residue; d: D form. The star is where a group is joined. Maleimide(3,4-diyl) = O=C1NC(=O)C([*:2])=C1[*:1]; Ac6c = NC1(C(=O)O)CCCCC1; Dab = NCC[C@H](N)C(=O)O; NHNH2 = NN*

Assays:
A. baumannii ATCC 19606 = assay: Antibacterial assay (MIC); assay type: cell-based; conditions: A. baumannii ATCC 19606, MHB, 37° C.
Procedure: (§1) Antibacterial assay. Antibacterial assays are undertaken to determine the minimal inhibitory concentrations (MIC) as described previouslyl^6.
(§2) Antibacterial activity. Each C-terminal modified PrAMP DTM-linked tetramer is assayed against nosocomial Gram-negative bacteria, including E. coli ATCC 29222, K. pneumoniae ATCC 13883, A. baumannii ATCC 19606 and P. aeruginosa ATCC 47085.

E. coli ATCC 29222 = assay: Antibacterial assay (MIC); assay type: cell-based; conditions: E. coli ATCC 29222, MHB, 37° C.
Procedure: as §1, §2

K. pneumoniae ATCC 13883 = assay: Antibacterial assay (MIC); assay type: cell-based; conditions: K. pneumoniae ATCC 13883, MHB, 37° C.
Procedure: as §1, §2

P. aeruginosa ATCC 47085 = assay: Antibacterial assay (MIC); assay type: cell-based; conditions: P. aeruginosa ATCC 47085, MHB, 37° C.
Procedure: as §1, §2

[1] = system: panel of Gram-negative nosocomial bacteria (E. coli, K. pneumoniae, A. baumannii, P. aeruginosa); assay: Antibacterial assay (MIC), ranges over the panel; assay type: cell-based; conditions: against E. coli, A. baumannii and P. aeruginosa
Procedure: as §1, §2

K. pneumoniae K97/09 = assay: Bacteremia Synergy Assay 1 (mouse systemic infection); assay type: in vivo; conditions: 30 mg/kg sc 3 times (Group 2)
Procedure: In vivo Studies. Animals. Assays 1-2. NMRI (Naval Medical Research Institute) BR or CD-1 mice (Toxi-Coop Zrt, Budapest, Hungary) were housed in plastic type 2 cages, 3-5 mice per cage, on softwood granules as bedding. The room was kept between 21° C. and 25° C. with 12 h light:12 h dark cycles. The animals had free access to tap water and pelleted rodent food. Upon completion of the experiments, surviving mice were euthanized by diethyl ether inhalation. Animals were maintained and handled in accordance with the recommendations of the Guidelines for the Care and Use of Laboratory Animals, and the protocols were approved by the Animal Care Committee of Semmelweis University. The planned 15 treatment groups of mice were divided roughly equally into two assays with 8 and 7 treatment groups and untreated controls in each assay for safe and humane handling of large numbers of mice.
Infection models. NMRI mice weighing approximately 20 g (4 weeks old) were infected by intraperitoneal (ip) injection of 4×10^8 CFU/g K. pneumoniae K97/09. Mice were randomly allocated to 8 and […] groups (5 mice per group).
Bacteremia Synergy Assay 1.
Group 1: phosphate buffered saline (PBS) subcutaneously (sc) 1 h after infection. Group 2: imipenem 30 mg/kg sc at 2, 14 and 26 h after infection. […]
Survival was recorded hourly 24-36 h after infection. […]

[2] = system: multidrug-resistant Klebsiella pneumoniae K97/09; assay: microbe, parasite or virus in culture
[3] = system: multidrug-resistant Acinetobacter baumannii BAA-1605; assay: microbe, parasite or virus in culture; conditions: BAA1605
[4] = system: Klebsiella pneumoniae K97/09; assay: Checkerboard synergy assay (FIC index); assay type: cell-based; conditions: K. pneumoniae K97/09
Procedure: In vitro activity and synergy. Minimal inhibitory concentration (MIC) assays were performed using sterile 96-well polypropylene plates in a final volume of […]. Briefly, 50 μL of midlogarithmic phase bacterial cultures were diluted to 5×10^5 CFU/mL in Mueller-Hinton broth (MHB) and then added to 50 μL of the serially diluted antibiotic. The highest A3-APO and other test compound concentration evaluated was 256 mg/L. Cultures were incubated at 37° C. for 16-20 h without shaking. MICs were identified as the lowest antimicrobial concentrations at which turbidity was not observed. Antimicrobial synergy was determined by evaluating the fractional inhibitory concentration (FIC) index and was characterized by a conventional checkerboard assay (Fernandez-Cuenca et al., 2003). Bacteria grown to mid-logarithmic phase in MHB were pre-incubated with serially diluted concentrations of peptides such as A3-APO, and the antimicrobial controls, imipenem, colistin or meropenem.
The sum of the FICs (Σ FIC) was calculated with the equation Σ FIC=FICA+FICB=(CA/MICA)+(CB/MICB), where MICA and MICB are the MICs of antimicrobial A and B alone, respectively, and CA and CB are the concentrations of the drugs when combined, respectively. Synergy was defined as a Σ FICs≤0.5 and additive activity was defined as a Σ FICs>0.5≤1.0.

[5] = system: Acinetobacter baumannii BAA-1605; assay type: cell-based; conditions: A. baumannii BAA-1605
Procedure: In vitro activity and synergy. Minimal inhibitory concentration (MIC) assays were performed using sterile 96-well polypropylene plates in a final volume of 100 mL. Briefly, 50 μL of midlogarithmic phase bacterial cultures were diluted to 5×10^5 CFU/mL in Mueller-Hinton broth (MHB) and then added to 50 μL of the serially diluted antibiotic. […] MICs were identified as the lowest antimicrobial concentrations at which turbidity was not observed. Antimicrobial synergy was determined by evaluating the fractional inhibitory concentration (FIC) index and was characterized by a conventional checkerboard assay (Fernandez-Cuenca et al., 2003).

bacterial DnaK = bacterial DnaK (Escherichia coli, UniProt P0A6Y8); conditions: Cassone et al., 2008; cited from earlier work
S. typhimurium = assay: Synergy results for co-administration of A3-APO (ARV-1501); assay type: cell-based; conditions: antibiotic co-administered with A3-APO (ARV-1501)

Chain of bacterial DnaK (P0A6Y8 whole entry): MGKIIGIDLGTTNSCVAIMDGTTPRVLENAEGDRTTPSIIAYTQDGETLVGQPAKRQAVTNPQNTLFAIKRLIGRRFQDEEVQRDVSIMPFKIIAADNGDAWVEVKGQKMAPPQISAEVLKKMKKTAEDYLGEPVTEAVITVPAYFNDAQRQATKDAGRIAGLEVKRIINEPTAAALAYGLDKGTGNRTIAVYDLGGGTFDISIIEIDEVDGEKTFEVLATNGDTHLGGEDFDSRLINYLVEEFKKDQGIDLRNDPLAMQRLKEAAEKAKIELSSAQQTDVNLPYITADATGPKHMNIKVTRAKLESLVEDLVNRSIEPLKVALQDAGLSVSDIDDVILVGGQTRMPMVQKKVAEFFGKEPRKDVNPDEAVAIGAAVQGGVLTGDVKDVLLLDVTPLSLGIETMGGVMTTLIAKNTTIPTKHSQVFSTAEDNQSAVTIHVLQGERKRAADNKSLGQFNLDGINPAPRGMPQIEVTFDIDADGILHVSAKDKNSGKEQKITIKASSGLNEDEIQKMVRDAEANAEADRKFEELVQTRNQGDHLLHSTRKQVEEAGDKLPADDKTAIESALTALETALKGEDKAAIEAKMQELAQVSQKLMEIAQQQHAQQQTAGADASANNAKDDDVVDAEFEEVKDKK

I: H-[Ac6c]RPDKPRPYLPRPRPPRPVR[Dab]C-NHNH2 / II: H-[Ac6c]RPDKPRPYLPRPRPPRPVR[Dab]C-NHNH2 / III: H-[Ac6c]RPDKPRPYLPRPRPPRPVR / IV: H-[Ac6c]RPDKPRPYLPRPRPPRPVR (amide I:21-III:C, II:21-IV:C; linker I:22-II:22 via Maleimide(3,4-diyl)) [tetramer-DTM-NHNH2]
Antibacterial activity, MIC (A. baumannii ATCC 19606): 2.33 ± 0.48 µM
Antibacterial activity, MIC (E. coli ATCC 29222): 0.93 ± 0.02 µM
Antibacterial activity, MIC (K. pneumoniae ATCC 13883): 0.49 ± 0.01 µM
Antibacterial activity, MIC (P. aeruginosa ATCC 47085): 1.14 ± 0.03 µM
MIC (range over the bacteria) [1]: 0.49 to 2.33 µM

C[C@@H](O)[C@H]1C(=O)N2C(C(=O)O)=C(SCCN=CN)C[C@H]12 [imipenem]
survival improvement at 36 h over untreated controls (K. pneumoniae K97/09): 40%
MIC [2]: > 256 µg/mL
MIC [3]: 64 µg/mL (≈ 214 µM)

I: H-[Ac6c]RPDKPRPYLGRPRPPRPVR[Dab]-NH2 / II: H-[Ac6c]RPDKPRPYLGRPRPPRPVR (amide I:21-II:C) [Gly11, (H-Chex-Arg-Pro-Asp-Lys-Pro-Arg-Pro-Tyr-Leu-Gly-Arg-Pro-Arg-Pro-Pro-Arg-Pro-Val-Arg)2-Dab-NH2]
improvement in the MIC values when added together with imipenem or colistin [4]: failed to exert any improvement
improvement in the MIC values when added together with imipenem or colistin [5]: failed to exert any improvement
DnaK binding (bacterial DnaK): fails to bind bacterial DnaK

Cc1cc(NS(=O)(=O)c2ccc(N)cc2)no1 [sulfamethoxazole]
Outcome (S. typhimurium): MIC lowered with priming
